Reference: patent US11420922B2, “Hydroxylated tropolone inhibitors of nucleotidyl transferases in herpesvirus and Hepatitis B and uses therefor” (Saint Louis University, priority 2015, dated 2022)
Like-named read-outs stand apart in the source and are kept apart here.

Key:
[1] = test system: HSV-1; experiment: Anti-HSV-1 replication assay in Vero cells, titers by plaque assay; assay type: cell-based, herpes simplex virus 1; conditions: Human alphaherpesvirus 1, Vero; for log reduction at 5 µM / log reduction at 50 µM: 24 h; for log reduction at 5 µM: read-out: HSV-1 Log suppression 5 μM; for log reduction at 50 µM: read-out: HSV-1 Log suppression 50 μM; for log reduction at 1.5 µM: read-out: HSV-1 Log suppression 1.5 μM
Procedure: Vero cells were maintained in Dulbecco's modified Eagle's medium (DMEM) containing 3% newborn calf serum, 3% bovine growth serum, 2 mM L-glutamine and 100 IU/mL penicillin and 0.1 mg/mL streptomycin (P/S). HSV-1 #6 and HSV-2 #1 are de-identified clinical isolates from the Saint Louis University Hospital. Stocks were prepared after a single passage in cell culture and were titered by standard plaque assay (Knipe and Spang, 1982). Wild-type HSV-2 used in FIG. 3 was laboratory strain 333. […] Virus stocks were grown and titered on Vero cells (Morrison and Knipe, 1996).
(§1) Compounds to be screened were diluted in PBS supplemented to contain 2% newborn calf serum and 1% glutamine, and added in 100 μL volume to confluent cell monolayers in 24-well cluster plates. Immediately thereafter HSV-1 and HSV-2, diluted in the supplemented PBS medium, were added to the wells in 50 μl volume such that the final concentration of compound was 50 μM and 5 μM and the multiplicity of infection was 0.1. The plates were incubated at 37° C. for 1 hour and then virus-containing inoculum was removed and the wells were washed once in PBS. Compounds, diluted to 50 μM and 5 μM in DMEM supplemented to contain 2% newborn calf serum and 1% each penicillin/streptomycin, were added at 0.5 mL/well. Plates were incubated at 37° C. an additional 23 hr, and then the plates were visually inspected through a phase contrast microscope for cytopathic effect, and for toxic effect. […] The entire contents of each well were collected by scraping. Samples were frozen at −80° C., and then subsequently thawed, sonicated, and infectious virus titer was determined by standard plaque assay on Vero cell monolayers. Because the compounds were dissolved at 10 mM in 100% DMSO, equivalent dilutions of DMSO were added to additional wells as a control for effects of the diluent. Each experiment was repeated once. EC50 values were determined as above except that serial dilutions of the compound to be tested were prepared starting at 50 μM. The inhibitory values were calculated by non-linear curve-fitting in GraphPad Prism.

[2] = test system: HSV-2; experiment: Anti-HSV-2 replication assay in Vero cells, titers by plaque assay; assay type: cell-based, herpes simplex virus 2; conditions: for log reduction at 5 µM / log reduction at 50 µM: Human alphaherpesvirus 2, Vero, 24 h; for log reduction at 5 µM: read-out: HSV-2 Log suppression 5 μM; for log reduction at 50 µM: read-out: HSV-2 Log suppression 50 μM
[3] = test system: HBV; experiment: HBV replication assay in HepDES19 cells; assay type: cell-based; conditions: Hepatitis B virus; HepDES19 cells; read-out: EC50 (HBV assay)
Procedure: HBV replication assay. Inhibition of HBV replication was measured in HepDES19 cells as previously described (Cai, et al., 2014). Cells were seeded into 6-well plates and incubated in DMEM/F12, 10% fetal bovine serum (FBS), 1% penicillin/streptomycin (P/S) with 1 μg/ml tetracycline. Tetracycline was withdrawn after 24 hours. The test compound was applied to duplicate wells 48 hours later in medium containing a final DMSO concentration of 1%, and medium containing the compound was refreshed daily for the following two days. Cells were harvested and non-encapsidated nucleic acids were digested with micrococcal nuclease (New England Biolabs). HBV DNA was purified from capsids using QIAamp Cador Pathogen Mini Kit (Qiagen) with proteinase K incubation overnight at 37° C. TaqMan PCR was performed for 40 cycles at an annealing temperature of 60° C. Primers and probe (IDT Inc.) for the plus-polarity strand were: 5′[…]3′ (SEQ ID NO: 1); 5′[…]3′ (SEQ ID NO: 2); 5′/56-FAM/[…]/ZEN/[…]/3IABkFQ (SEQ ID NO: 3). Primers and probe for the minus-polarity strand were: 5′[…]3′ (SEQ ID NO: 4); 5′[…]3′ (SEQ ID NO: 5); 5′/56-FAM/[…]/ZEN/[…]/3IABkFQ (SEQ ID NO: 6).

[4] = test system: HSV; experiment: Anti-HSV SAR summary, HSV type not separated; assay type: cell-based, herpes simplex virus; conditions: grouped by activity at 50, 5 and 0.5 μM
Procedure: as §1
A series of over 20 synthetic αHTs were synthesized and tested to both confirm the initial SAR, and to provide leads for further optimization pursuits (FIG. 5). […] Specifically, biphenyl-containing molecules #118 and 115 inhibit HSV replication by up to 4 log10 at 200 nM. The increased potency over close analogs #111 and 113 confirmed the importance of added lipophilicity.

[5] = Cytotoxicity reported with the HBV assay (Table 4); assay type: cell-based; conditions: human
Procedure: Qualitative assessments of cytotoxicity were done visually by inspecting the cells in the primary screening assays. For the quantitative assays, cells were plated in 96-well plates at 1.0×10^4 per well. The next day the compounds were added at 0.78 to 100 μM in a final concentration of 1% (v/v) DMSO, and the cells were incubated for 24 hours under conditions identical to those employed for the viral replication inhibition assays. Mitochondrial toxicity was measured by incubating the cells with 0.25 mg/mL thiazolyl blue tetrazolium bromide (MTT, Sigma Aldrich Chemical Co.), the cultures were incubated for 60 min, metabolites were solubilized in acidic isopropanol, and absorbance was read at 570 nm. CC50 values were calculated by non-linear curve fitting using GraphPad Prism.

[6] = 5 μM, moi 0.1, 24 h, vs DMSO, +/− are qualitative, key not given
[7] = 50 μM, moi 0.1, 24 h, vs DMSO, +/−/T are qualitative, key not given
[8] = hepatoma cells, read-out: CC50 (HBV assay table)

SMILES: Nc1ccn(C[C@@H](CO)OCP(=O)(O)O)c(=O)n1 [CDV, Cidofovir, reference compound]
- log reduction at 5 µM [1, 6]: 0.77
- log reduction at 50 µM [1, 7]: 2.67
- log reduction at 5 µM [2, 6]: 0.38
- log reduction at 50 µM [2, 7]: 1.19

SMILES: COC(=O)c1c(C)cc(O)c(=O)c(O)c1C(=O)OC [Compound 106]
- EC50 [3]: 2.7 µM
- anti-HSV SAR group, in words [4]: weakest inhibitors
- log reduction at 5 µM [1]: -0.07
- log reduction at 50 µM [1]: 4.11
- log reduction at 5 µM [2]: -0.55
- log reduction at 50 µM [2]: 2.87

SMILES: COC(=O)c1c(CCl)cc(O)c(=O)c(O)c1C(=O)OC [Compound 107]
- CC50 at 24 h [5, 8]: 71 µM

SMILES: COCc1cc(O)c(=O)c(O)c(C(=O)OC)c1C(=O)OC [Compound 108]
- anti-HSV SAR group, in words [4]: weakest inhibitors
- CC50 at 24 h [5, 8]: 81 µM
- log reduction at 5 µM [1]: 0
- log reduction at 5 µM [2]: 0

SMILES: CCOC(=O)c1cc(O)c(=O)c(O)cc1C [Compound 109]
- anti-HSV SAR group, in words [4]: weakest inhibitors
- log reduction at 5 µM [1]: 0.21
- log reduction at 50 µM [1]: 3.99
- log reduction at 5 µM [2]: -0.22
- log reduction at 50 µM [2]: 4.15

SMILES: Cc1cc(O)c(=O)c(O)cc1-c1ccc([N+](=O)[O-])cc1 [Compound 112]
- EC50 [3]: 2.5 µM
- anti-HSV SAR group, in words [4]: weakest inhibitors
- log reduction at 5 µM [1]: 0.02
- log reduction at 50 µM [1]: 5.25
- log reduction at 5 µM [2]: -0.4
- log reduction at 50 µM [2]: 3.2

SMILES: Cc1cc(O)c(=O)c(O)cc1-c1ccc(Cl)cc1 [Compound 144]
- anti-HSV SAR group, in words [4]: weakest inhibitors
- log reduction at 5 µM [1]: -0.34
- log reduction at 50 µM [1]: 3.83
- log reduction at 5 µM [2]: 0.65
- log reduction at 50 µM [2]: 5.18

SMILES: O=c1c(O)cccc2cc(O)c(O)c(O)c12 [Compound 195, purpurogallin]
- log reduction at 5 µM [1]: 0.17
- log reduction at 50 µM [1]: 0.2
- log reduction at 5 µM [2]: -0.04
- log reduction at 50 µM [2]: 0.11

SMILES: Cc1ccc(O)c(=O)c(O)c1 [Compound 210]
- log reduction at 5 µM [1]: 4.32
- log reduction at 50 µM [1]: 4.56
- log reduction at 5 µM [2]: 4.04
- log reduction at 50 µM [2]: 5.55

SMILES: Cc1cc(O)c(=O)c(O)cc1-c1cccc(-c2ccccc2)c1 [Compound 231]
- EC50 [3]: 10 µM
- CC50 at 24 h [5, 8]: 16 µM

SMILES: Cc1cc(O)c(=O)c(O)cc1-c1cccc(-c2ccc3ccccc3c2)c1 [Compound 232]
- EC50 [3]: 9.6 µM
- CC50 at 24 h [5, 8]: 55 µM

SMILES: Cc1cc(O)c(=O)c(O)cc1-c1ccc(-c2ccc3ccccc3c2)cc1 [Compound 233]
- log reduction at 1.5 µM [1]: 2.63

SMILES: Cc1cc(O)c(=O)c(O)cc1-c1cccc(-c2cccc3ccccc23)c1 [Compound 234]
- log reduction at 1.5 µM [1]: 2.71

SMILES: Cc1cc(O)c(=O)c(O)cc1-c1ccc(-c2cccc3ccccc23)cc1 [Compound 235]
- EC50 [3]: 5.2 µM
- CC50 at 24 h [5, 8]: 30 µM

SMILES: Cc1cc(O)c(=O)c(O)cc1C(=O)c1cccc(-c2ccccc2)c1 [Compound 255]
- log reduction at 1.5 µM [1]: 5.02

SMILES: Cc1cc(O)c(=O)c(O)cc1C(=O)c1ccc(-c2cccc3ccccc23)cc1 [Compound 256]
- log reduction at 1.5 µM [1]: 5.18

SMILES: Cc1cc(O)c(=O)c(O)cc1C(=O)c1cccc(-c2cccc3ccccc23)c1 [Compound 257]
- EC50 [3]: 8.3 µM
- CC50 at 24 h [5, 8]: 32 µM
- log reduction at 1.5 µM [1]: 4.82

SMILES: Cc1cc(O)c(=O)c(O)cc1C(=O)c1ccc(-c2ccc3ccccc3c2)cc1 [Compound 258]
- EC50 [3]: 8.8 µM
- CC50 at 24 h [5, 8]: 28 µM
- log reduction at 1.5 µM [1]: 5.04

SMILES: Cc1cc(O)c(=O)c(O)cc1C(=O)c1cccc(-c2ccc3ccccc3c2)c1 [Compound 259]
- EC50 [3]: 2.8 µM
- CC50 at 24 h [5, 8]: 21 µM
- log reduction at 1.5 µM [1]: 5.05

SMILES: Cc1cc(O)c(=O)c(O)cc1C(=O)c1ccc(-c2ccncc2)cc1 [Compound 260]
- log reduction at 1.5 µM [1]: 0.5

SMILES: O=c1c(O)ccc(Br)cc1O [Compound 261]
- CC50 at 24 h [5, 8]: > 100 µM

SMILES: O=c1c(O)ccc(-c2ccccc2)cc1O [Compound 262]
- CC50 at 24 h [5, 8]: 96 µM

SMILES: O=c1c(O)ccc(-c2ccc(-c3ccccc3)cc2)cc1O [Compound 264]
- CC50 at 24 h [5, 8]: 28 µM

SMILES: O=c1c(O)ccc(-c2ccco2)cc1O [Compound 265]
- CC50 at 24 h [5, 8]: 40 µM

SMILES: O=c1c(O)ccc(-c2ccncc2)cc1O [Compound 266]
- CC50 at 24 h [5, 8]: 32 µM

SMILES: O=c1c(O)ccc(-c2cnc3ccccc3c2)cc1O [Compound 267]
- CC50 at 24 h [5, 8]: 25 µM

SMILES: COC(=O)c1c(C)cc(OC)c(=O)c(O)c1OC [Compound 269]
- CC50 at 24 h [5, 8]: > 100 µM
- log reduction at 5 µM [1]: 1.48
- log reduction at 50 µM [1]: 3.76
- log reduction at 1.5 µM [1]: 0.24
- HSV-2 Log suppression 1.5 μM ([2]; 1.5 μM): 4.04 log10
- log reduction at 50 µM [2]: 4.67

SMILES: CCOC(=O)c1c(C)cc(O)c(=O)c(O)c1O [Compound 270]
- log reduction at 5 µM [1]: 5.97
- log reduction at 50 µM [1]: 6.47
- log reduction at 5 µM [2]: 6.32
- log reduction at 50 µM [2]: 6.9

SMILES: O=C1OCc2cc(O)c(=O)c(O)c(O)c21 [Compound 271]
- log reduction at 5 µM [1]: 0.47
- log reduction at 50 µM [1]: 1.87
- log reduction at 1.5 µM [1]: 0.21
- log reduction at 5 µM [2]: 1.53
- log reduction at 50 µM [2]: 2.94

SMILES: COC(=O)c1cc(O)c(=O)c(OC)cc1C [Compound 273]
- log reduction at 5 µM [1]: 5.75
- log reduction at 50 µM [1]: 6.05
- log reduction at 1.5 µM [1]: 2.12
- log reduction at 5 µM [2]: 6.32
- log reduction at 50 µM [2]: 6.9

SMILES: COC(=O)c1cc(O)c(=O)c(O)cc1C [Compound 274]
- CC50 at 24 h [5, 8]: > 100 µM
- log reduction at 1.5 µM [1]: 0.59

SMILES: COC(=O)c1c2c(cc(O)c(=O)c1O)COC2=O [Compound 280]
- CC50 at 24 h [5]: 32 µM
